Measured values: patent publication US8697641B2, “4-amino-4-oxobutanoyl peptide cyclic analogues, inhibitors of viral replication” (Achillion Pharmaceuticals, Inc., priority 2008, dated 2014)

system: Hepatitis C replicon; test: HCV replicon assay (NPT ELISA readout) in Huh-7 replicon-containing cells; type: cell-based, Hepatitis C virus; settings: Hepatitis C virus, 72 h; HCV replicon in Huh-7 cells, three days incubation
How it was run: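 Huh-7 cells carrying a neo-containing HCV subgenomic replicon (NS3-NS5B) were plated overnight, then exposed to compound (generally 6 concentrations, 10 to 0.03 μM) for three days at 37 °C. Replication was read as NPT level by captured ELISA; interferon alpha served as positive control.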

| Structure (SMILES) | EC50 [nM] |
| --- | --- |
| O=C1N[C@]2(C(=O)NS(=O)(=O)C3CC3)C[C@H]2/C=C\CCCCC[C@H](CC(=O)N2CCC(C(F)(F)F)CC2)C(=O)N2C[C@H](Oc3cc(-c4ccccn4)nc4c5c(ccc34)CCC5)C[C@@H]12 [Compound 125, (2R,6R,13aS,16aS,Z)-N-(cyclopropylsulfonyl)-5,16-dioxo-6-(2-oxo-2-(4-(trifluoromethyl)piperidin-1-yl)ethyl)-2-(2-(pyridin-2-yl)-8,9-dihydro-7H-cyclopenta[h]quinolin-4-yloxy)-1,2,3,5,6,7,8,9,10,11, 13a,14,14a,15,16,16a-hexadecahydrocyclopropa [e]pyrrolo[1,2-a][1,4] diazacyclopentadecine-14a-carboxamide] | < 1000 |
| COc1ccc2c(O[C@@H]3C[C@H]4C(=O)N[C@]5(C(=O)NS(=O)(=O)C6CC6)C[C@H]5/C=C\CCCCC[C@H](CC(=O)N5CCC(C(F)(F)F)CC5)C(=O)N4C3)cc(-c3nc(C(C)C)cs3)nc2c1C [Compound 126, (2R,6R,14aR,16aS,Z)-N-(cyclopropylsulfonyl)-2-(2-(4-isopropylthiazol-2-yl)-7-methoxy-8-methylquinolin-4-yloxy)-5,16-dioxo-6-(2-oxo-2-(4-(trifluoromethyl)piperidin-1-yl)ethyl)-1,2,3,5,6,7,8,9,10,11, 13a,14,14a,15,16,16a-hexadecahydrocyclopropa [e]pyrrolo[1,2-a][1,4] diazacyclopentadecine-14a-carboxamide] | < 1000 |
| O=C1N[C@]2(C(=O)NS(=O)(=O)C3CC3)C[C@H]2/C=C\CCCCC[C@H](CC(=O)N2CCCC(F)(F)C2)C(=O)N2C[C@H](Oc3cc(-c4ccccn4)nc4c5c(ccc34)CCC5)C[C@@H]12 [Compound 127, (2R,6R,13aS,16aS,Z)-N-(cyclopropylsulfonyl)-6-(2-(3,3-difluoropiperidin-1-yl)-2-oxoethyl)-5,16-dioxo-2-(2-(pyridin-2-yl)-8,9-dihydro-7H-cyclopenta[h]quinolin-4-yloxy)-1,2,3,5,6,7,8,9,10,11, 13a,14,14a,15,16,16a-hexadecahydrocyclopropa [e]pyrrolo[1,2-a][1,4] diazacyclopentadecine-14a-carboxamide] | > 10000 |
| COc1ccc2c(O[C@@H]3C[C@H]4C(=O)N[C@]5(C(=O)NS(=O)(=O)C6CC6)C[C@H]5/C=C\CCCCC[C@H](CC(=O)N5CCCC(F)(F)C5)C(=O)N4C3)cc(-c3nc(C(C)C)cs3)nc2c1C [Compound 128, (2R,6R,14aR,16aS,Z)-N-(cyclopropylsulfonyl)-6-(2-(3,3-difluoropiperidin-1-yl)-2-oxoethyl)-2-(2-(4-isopropylthiazol-2-yl)-7-methoxy-8-methylquinolin-4-yloxy)-5,16-dioxo-1,2,3,5,6,7,8,9,10,11, 13a,14,14a,15,16,16a-hexadecahydrocyclopropa [e]pyrrolo[1,2-a][1,4] diazacyclopentadecine-14a-carboxamide] | < 1000 |
| COc1ccc2c(O[C@@H]3C[C@H]4C(=O)N[C@]5(C(=O)NS(=O)(=O)C6CC6)C[C@H]5/C=C\CCCCC[C@H](CC(=O)N5CCCC(F)(F)C5)C(=O)N4C3)cc(-c3cccnc3)nc2c1C [Compound 129, (2R,6R,14aR,16aS,Z)-N-(cyclopropylsulfonyl)-6-(2-(3,3-difluoropiperidin-1-yl)-2-oxoethyl)-2-(7-methoxy-8-methyl-2-(pyridin-3-yl)quinolin-4-yloxy)-5,16-dioxo-1,2,3,5,6,7,8,9,10,11, 13a,14,14a,15,16,16a-hexadecahydrocyclopropa [e]pyrrolo[1,2-a][1,4] diazacyclopentadecine-14a-carboxamide] | > 10000 |
| COc1ccc2c(O[C@@H]3C[C@H]4C(=O)N[C@]5(C(=O)NS(=O)(=O)C6CC6)C[C@H]5/C=C\CCCCC[C@H](CC(=O)N5CCCC(F)(F)C5)C(=O)N4C3)nc(-c3ccccn3)cc2c1Cl [Compound 130, (2R,6R,14aR,16aS,Z)-2-(5-chloro-6-methoxy-3-(pyridin-2-yl)isoquinolin-1-yloxy)-N-(cyclopropylsulfonyl)-6-(2-(3,3-difluoropiperidin-1-yl)-2-oxoethyl)-5,16-dioxo-1,2,3,5,6,7,8,9,10,11, 13a,14,14a,15,16,16a-hexadecahydrocyclopropa [e]pyrrolo[1,2-a][1,4] diazacyclopentadecine-14a-carboxamide] | < 1000 |
| COc1ccc2c(O[C@@H]3C[C@H]4C(=O)N[C@]5(C(=O)NS(=O)(=O)C6CC6)CC5/C=C\CCCCC[C@H](CC(=O)N5CCC(C(F)(F)F)CC5)C(=O)N4C3)cc(-c3cccnc3)nc2c1C (stereo partly drawn) [Compound 131, (2R,6R,14aR,16aS,Z)-N-(cyclopropylsulfonyl)-2-(7-methoxy-8-methyl-2-(pyridin-3-yl)quinolin-4-yloxy)-5,16-dioxo-6-(2-oxo-2-(4-(trifluoromethyl)piperidin-1-yl)ethyl)-1,2,3,5,6,7,8,9,10,11, 13a,14,14a,15,16,16a-hexadecahydrocyclopropa [e]pyrrolo[1,2-a][1,4] diazacyclopentadecine-14a-carboxamide] | < 1000 |
| COc1ccc2c(O[C@@H]3C[C@H]4C(=O)N[C@]5(C(=O)NS(=O)(=O)C6CC6)C[C@H]5/C=C\CCCCC[C@H](CC(=O)N5CCC(C(F)(F)F)CC5)C(=O)N4C3)nc(-c3ccccn3)cc2c1Cl [Compound 132, (2R,6R,14aR,16aS,Z)-2-(5-chloro-6-methoxy-3-(pyridin-2-yl)isoquinolin-1-yloxy)-N-(cyclopropylsulfonyl)-5,16-dioxo-6-(2-oxo-2-(4-(trifluoromethyl)piperidin-1-yl)ethyl)-1,2,3,5,6,7,8,9,10,11, 13a,14,14a,15,16,16a-hexadecahydrocyclopropa [e]pyrrolo[1,2-a][1,4] diazacyclopentadecine-14a-carboxamide] | < 1000 |
| COc1ccc2c(O[C@@H]3C[C@H]4C(=O)N[C@]5(C(=O)NS(=O)(=O)C6CC6)C[C@H]5/C=C\CCCCC[C@H](CC(=O)N5CCCC(F)(F)C5)C(=O)N4C3)cc(-c3csc(C(C)C)n3)nc2c1C [Compound 133, (2R,6R,14aR,16aS,Z)-N-(cyclopropylsulfonyl)-6-(2-(3,3-difluoropiperidin-1-yl)-2-oxoethyl)-2-(2-(2-isopropylthiazol-4-yl)-7-methoxy-8-methylquinolin-4-yloxy)-5,16-dioxo-1,2,3,5,6,7,8,9,10,11, 13a,14,14a,15,16,16a-hexadecahydrocyclopropa [e]pyrrolo[1,2-a][1,4] diazacyclopentadecine-14a-carboxamide] | < 1000 |
